Experimental data reported in patent US20250326794A1, “ANTI-CANCER LEUCINE-RICH PEPTIDES AND USES THEREOF” (KING'S COLLEGE LONDON, priority 2019, published 2025).

Columns and labels:
[1] = ANTS/DPX liposome leakage assay, 3POPC/1POPG vesicles; format: biochemical; conditions: for Peptide Concentration-induced 50% ANTS/DPX leakage at pH 4.8, 3POPC/1POPG Vesicle / Peptide Concentration-induced 50% ANTS/DPX leakage at pH 7.4, 3POPC/1POPG Vesicle: 0.5 mM vesicles; for Peptide Concentration-induced 50% ANTS/DPX leakage at pH 4.8, 3POPC/1POPG Vesicle: pH 4.8, lipid per peptide; for Peptide Concentration-induced 50% ANTS/DPX leakage at pH 7.4, 3POPC/1POPG Vesicle: pH 7.4, lipid per peptide; for liposome leakage activity from anionic vesicle at pH 4.8 (in words): anionic versus zwitterionic vesicle
Method in brief: (§1)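 Peptide titrations (0–20 μM) were incubated 3 h with 0.5 mM ANTS/DPX-loaded 100 nm vesicles, either POPC alone or 3:1 POPC/POPG, at pH 7.4 or pH 4.8 in PBS. ANTS fluorescence (350/510 nm) normalized to Triton-lysed vesicles; 50%-leakage values given as lipid:peptide ratio.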

[2] = test system: U2OS (human bone osteosarcoma); conditions: 72 h
Method in brief: (§2)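 MTT viability after 72 h exposure to 0–100 μM compound (final DMSO 0.5% or 0%), 5×10^3 cells/well; HMLER lines and MCF-10A in MEGM, U2OS in DMEM with 10% FBS. A550 normalized to matching vehicle controls; IC50 interpolated from dose–response curves.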

[3] = ANTS/DPX liposome leakage assay, POPC vesicles; format: biochemical; conditions: 0.5 mM vesicles; for Peptide Concentration-induced 50% ANTS/DPX leakage at pH 4.8, POPC Vesicle: pH 4.8, lipid per peptide; for Peptide Concentration-induced 50% ANTS/DPX leakage at pH 7.4, POPC Vesicle: pH 7.4, lipid per peptide
Method in brief: as §1

[4] = test system: HMLER-shEcad (human breast cancer stem cell); test: cells; conditions: 72 h
Method in brief: as §2

[5] = test system: HMLER (human breast cancer bulk cell); test: cells; conditions: 72 h
Method in brief: as §2

[6] = test system: MCF-10A (human breast epithelial cell); test: cells; conditions: 72 h
Method in brief: as §2

[7] = test system: HEK293T (human embryonic kidney cell); test: cells; conditions: 72 h
[8] = Tryptophan fluorescent binding assay, POPC vesicles; conditions: 50 μM peptide, PBS pH 7.4, lipid per peptide
Method in brief: (§3)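 Binding followed by tryptophan emission (300-450 nm, 280 nm excitation, 3 scans averaged) after 60 min incubation of 50 μM peptide with 0-5000 μM extruded 100 nm POPC or 3:1 POPC/POPG vesicles in PBS pH 7.4. Value: lipid-to-peptide ratio at half-maximal binding.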

[9] = Tryptophan fluorescent binding assay, 3POPC/1POPG vesicles; conditions: 50 μM peptide, PBS pH 7.4, lipid per peptide
Method in brief: as §3

Compound | Peptide Concentration-induced 50% ANTS/DPX leakage at pH 4.8, 3POPC/1POPG Vesicle [1] [L/P] | Peptide Concentration-induced 50% ANTS/DPX leakage at pH 7.4, 3POPC/1POPG Vesicle [1] [L/P] | liposome leakage activity from anionic vesicle at pH 4.8 (in words) [1] | IC50 [2] [µM] | Peptide Concentration-induced 50% ANTS/DPX leakage at pH 4.8, POPC Vesicle [3] [L/P] | Peptide Concentration-induced 50% ANTS/DPX leakage at pH 7.4, POPC Vesicle [3] [L/P] | IC50 [4] [µM] | IC50 [5] [µM] | IC50 [6] [µM] | IC50 [7] [µM] | Lipid Concentration-induced 50% Peptide Binding, POPC Vesicle [8] [L/P] | Lipid Concentration-induced 50% Peptide Binding, 3POPC/1POPG Vesicle [9] [L/P]
CC(C)C[C@H](NC(=O)CN)C(=O)N[C@@H](CC(C)C)C(=O)N[C@@H](CC(=O)O)C(=O)N[C@@H](CC(C)C)C(=O)N[C@@H](CC(C)C)C(=O)N[C@@H](CCC(=O)O)C(=O)N[C@@H](CC(C)C)C(=O)N[C@@H](CC(C)C)C(=O)N[C@@H](CC(C)C)C(=O)N[C@@H](CCCCN)C(=O)N[C@@H](C)C(=O)N[C@@H](C)C(=O)NCC(=O)N[C@@H](Cc1c[nH]c2ccccc12)C(N)=O [DEK] | 469 | 773 | relatively higher liposome leakage activity | 19.9 ± 2.65 | 10 | 747 | 0.7 ± 0.07 | 1.14 ± 0.52 | ≥ 100 | 6.8 ± 0.85 | 1.50 | 1.67
CC(C)C[C@H](NC(=O)CN)C(=O)N[C@@H](CC(C)C)C(=O)N[C@@H](CCC(=O)O)C(=O)N[C@@H](CC(C)C)C(=O)N[C@@H](CC(C)C)C(=O)N[C@@H](CCC(=O)O)C(=O)N[C@@H](CC(C)C)C(=O)N[C@@H](CC(C)C)C(=O)N[C@@H](CC(C)C)C(=O)N[C@@H](CCC(=O)O)C(=O)N[C@@H](C)C(=O)N[C@@H](C)C(=O)NCC(=O)N[C@@H](Cc1c[nH]c2ccccc12)C(N)=O [EEE] | 28 | 346 | – | 78.8 ± 5.3 | 35 | 143 | 10.6 ± 3.46 | 6.25 ± 1.77 | ≥ 100 | 50 | 1.33 | 4.50
CC(C)C[C@H](NC(=O)CN)C(=O)N[C@@H](CC(C)C)C(=O)N[C@@H](CCC(=O)O)C(=O)N[C@@H](CC(C)C)C(=O)N[C@@H](CC(C)C)C(=O)N[C@@H](CCC(=O)O)C(=O)N[C@@H](CC(C)C)C(=O)N[C@@H](CC(C)C)C(=O)N[C@@H](CC(C)C)C(=O)N[C@@H](Cc1c[nH]cn1)C(=O)N[C@@H](C)C(=O)N[C@@H](C)C(=O)NCC(=O)N[C@@H](Cc1c[nH]c2ccccc12)C(N)=O [EEH] | 168 | 755 | relatively higher liposome leakage activity | 19.6 ± 3.96 | 58 | 738 | 3.6 ± 0.85 | 3.3 ± 0.14 | ≥ 100 | 12.9 ± 0.14 | 0.50 | 0.50
CC(C)C[C@H](NC(=O)CN)C(=O)N[C@@H](CC(C)C)C(=O)N[C@@H](CCC(=O)O)C(=O)N[C@@H](CC(C)C)C(=O)N[C@@H](CC(C)C)C(=O)N[C@@H](Cc1c[nH]cn1)C(=O)N[C@@H](CC(C)C)C(=O)N[C@@H](CC(C)C)C(=O)N[C@@H](CC(C)C)C(=O)N[C@@H](CCC(=O)O)C(=O)N[C@@H](C)C(=O)N[C@@H](C)C(=O)NCC(=O)N[C@@H](Cc1c[nH]c2ccccc12)C(N)=O [EHE] | 384 | 706 | relatively higher liposome leakage activity | 18.2 ± 1.06 | 75 | 952 | 2.55 ± 0.07 | 3.9 ± 0.28 | ≥ 100 | 13 | 0.44 | 0.44
CC(C)C[C@H](NC(=O)CN)C(=O)N[C@@H](CC(C)C)C(=O)N[C@@H](CCCCN)C(=O)N[C@@H](CC(C)C)C(=O)N[C@@H](CC(C)C)C(=O)N[C@@H](CCCCN)C(=O)N[C@@H](CC(C)C)C(=O)N[C@@H](CC(C)C)C(=O)N[C@@H](CC(C)C)C(=O)N[C@@H](CCC(=O)O)C(=O)N[C@@H](C)C(=O)N[C@@H](C)C(=O)NCC(=O)N[C@@H](Cc1c[nH]c2ccccc12)C(N)=O [KKE] | 131 | 346 | – | 12.8 ± 1.2 | 143 | 1133 | 1.7 | 2.05 ± 0.64 | – | 4.4 ± 0.14 | 0.48 | 0.44
CC(C)C[C@H](NC(=O)CN)C(=O)N[C@@H](CC(C)C)C(=O)N[C@@H](CCCCN)C(=O)N[C@@H](CC(C)C)C(=O)N[C@@H](CC(C)C)C(=O)N[C@@H](CCCCN)C(=O)N[C@@H](CC(C)C)C(=O)N[C@@H](CC(C)C)C(=O)N[C@@H](CC(C)C)C(=O)N[C@@H](Cc1c[nH]cn1)C(=O)N[C@@H](C)C(=O)N[C@@H](C)C(=O)NCC(=O)N[C@@H](Cc1c[nH]c2ccccc12)C(N)=O [KKH] | 49 | 227 | – | 13.3 ± 0.99 | 164 | 2119 | 2.2 ± 0.42 | 2.4 ± 0.85 | – | 4 ± 0.28 | 0.83 | 0.48
CC(C)C[C@H](NC(=O)CN)C(=O)N[C@@H](CC(C)C)C(=O)N[C@@H](CCCCN)C(=O)N[C@@H](CC(C)C)C(=O)N[C@@H](CC(C)C)C(=O)N[C@@H](CCCCN)C(=O)N[C@@H](CC(C)C)C(=O)N[C@@H](CC(C)C)C(=O)N[C@@H](CC(C)C)C(=O)N[C@@H](CCCCN)C(=O)N[C@@H](C)C(=O)N[C@@H](C)C(=O)NCC(=O)N[C@@H](Cc1c[nH]c2ccccc12)C(N)=O [KKK] | 81 | 115 | – | 9.65 ± 1.2 | 156 | 1369 | 1.35 ± 0.4 | 1.57 ± 0.24 | – | 3.7 ± 0.14 | 1.25 | 1.70
